# Like-named read-outs stand apart in the source and are kept apart here.
# Key:
# [1] = system: HCT116 colon cancer cells; assay: In vivo anti-cancer activity by oral administration, HCT116 tumor in nude mice; parameters: species or system BALB/c nu/nu mice; details: for inhibition in vivo at 20 mg/kg: Mus musculus
# Description: <Example 4> In Vivo Anti-Cancer Activity of Compounds by Oral Administration
# (§1) In vivo anti-cancer activity of the compounds according to the present invention, I-3, I-6, I-8, I-16, I-19, I-22, I-23, and I-24, was measured in mice to evaluate in vivo efficacy by oral administration. Specifically, the nude mice were divided into test groups and control groups, each consisting of 4 mice. In vivo efficacy was evaluated by measuring body weight, tumor volume, and tumor weight.
# (§2) Female nude mice 6 weeks old (BALB/c nu/nu, Charles River) were bred in germ-free breeding rooms maintained at constant temperature and humidity. After the nude mice were anesthetized, HCT116 colon cancer cells were implanted at a count of […] cells/mouse into the rectum in BALB/c nu/nu mice and then the incisions were closed with surgical clips. The size of tumor was measured by a caliper. When the size of transplanted tumor reached to 50˜60 mm^3, the above compounds according to the present invention were administered. In more detail, after the above compounds in test groups were dissolved at concentration of 20 mg/kg in a solvent containing 80% of physiological saline, 10% of DMAC (dimethylacetamide), and 10% Tween 80 (hereinafter referred to as ‘Solvent A’), […] of dissolved compounds were orally administered once a day. Mice in control groups were treated with […] of Solvent A alone once daily.
# (§3) Tumor volume and body weight were measured to identify in vivo anti-cancer activity of the compounds according to the present invention by repetitive oral administration. Tumor volume and tumor growth inhibition (TGI) in Table 2 were calculated according to the below Mathematic FIG. 1 and FIG. 2, respectively. Tumor growth inhibition was converted to a percentage in Table 2.
# [2] = system: HIF-1α-mediated HRE transcriptional activity; assay: Assay for inhibition of HIF-1α-mediated transcriptional activity (HRE reporter assay); type: cell-based, human; details: Homo sapiens, HCT-116, HCT116 cells, 12 hours under hypoxia (1% O2), read-out: Inhibitory activity against HIF-1α (10 μM)
# Description: <Experiment 1> Assay for Inhibition of HIF-1α-Mediated Transcriptional Activity (HRE Reporter Assay)
# The compounds can be developed as anti-cancer drugs, because the compounds inhibiting HIF-1α-mediated HRE transcriptional activity induced by hypoxia can suppress the growth and metastasis of cancer.
# Inhibitory effects of the compounds according to the present invention, from Formula I-1 to I-42, on HIF-1α-mediated transcriptional activity were evaluated using this assay. pGL3-HRE-luciferase vector was constructed as follows. Six copies of HRE (Hypoxia Responsive Element, 5′-ACGTG-3′) from human VEGF genes were inserted into the multi-cloning site of a pGL3-basic vector (Promega). A luciferase gene was used as a reporter gene.
# In detail, HCT116(ATCC #CCL-247) human colon cancer cells were seeded in 48-well cell culture plates. The cells were co-transfected with 25 ng of pGL3-HRE-luciferase and 2.5 ng of Renila control vectors using Polyfect reagent next day. After 24 hours of incubation, the cells were incubated for an additional 4 hours with replaced cell culture media. The cells were treated with various concentrations (0, 1, 3, 5, 10, and 20 μM) of the above compounds according to the present invention and incubated for 12 hours under hypoxia (1% O2, 94% N2, and 5% CO2). The luciferase assay was performed using a dual-luciferase reporter assay system (Promega). After cell lysate preparation with RIPA buffer, induced luciferase activity under hypoxic conditions was determined to examine inhibitory effects of the compounds according to the present invention, from Formula I-1 to I-42, on HIF-1α-mediated transcriptional activity.
# [3] = Body weight change and side effects during 14 days of oral treatment in nude mice; type: in vivo, BALB/c nu/nu mice
# Description: as §1, §2, §3
# Moreover, severe side effects and statistically significant changes of body weight in all mice treated compounds were not shown for 14 days, comparing to control groups treated with vehicle. (Table 3)
# [4] = system: GAPDH; assay: GAPDH expression level (internal control) in western blot, HCT116 cells; type: cell-based, human; details: HCT116, hypoxia 1% O2, 0-30 μM, 12 hours, FIG. 1
# Description: (§4) First, HCT116 human colon cancer cells (ATCC #CCL-247) were plated at the concentration of 2×10^5 cells/ml. After 24 hours, the cells were incubated under hypoxia (1% O2, 94% N2, and 5% CO2, expressed as 1% O2 in FIG. 1) for 4 hours in order to induce HIF-la accumulation. Cells were treated with the compounds at various concentrations (0, 3, 10, 20, and 30 μM) for 12 hours under hypoxia. The cells were then harvested, and lysed in RIPA buffer to obtain nuclear extracts. Cells grown at 20% O2 (normoxia) were used as control groups to compare HIF-1α-mediated gene expression under each condition. 30 μg of the nuclear extracts per sample was separated by SDS-PAGE (sodium dodecyl sulfate-polyacrylamide gel electrophoresis), and was then transferred to PVDF (polyvinylidene fluoride membrane) membranes. After membranes were probed with HIF-1α antibodies (R&D System), HIF-1α proteins were detected with HRP-conjugated secondary antibodies (Amersham-Pharmacia). GAPDH (Glyceraldehyde 3-phosphate dehydrogenase) was used as an internal control for loading in western blot analysis.
# [5] = target: T1, HIF-1α (Homo sapiens, UniProt Q16665); assay: Inhibition of hypoxia-induced HIF-1α accumulation, western blot in HCT116 cells; type: cell-based; details: HCT116, hypoxia 1% O2, 0-30 μM, 12 hours, FIG. 1
# T1 construct: endogenous in cells; host or cells: HCT116 human colon cancer cells (ATCC #CCL-247)
# T1 sequence (Q16665 whole entry): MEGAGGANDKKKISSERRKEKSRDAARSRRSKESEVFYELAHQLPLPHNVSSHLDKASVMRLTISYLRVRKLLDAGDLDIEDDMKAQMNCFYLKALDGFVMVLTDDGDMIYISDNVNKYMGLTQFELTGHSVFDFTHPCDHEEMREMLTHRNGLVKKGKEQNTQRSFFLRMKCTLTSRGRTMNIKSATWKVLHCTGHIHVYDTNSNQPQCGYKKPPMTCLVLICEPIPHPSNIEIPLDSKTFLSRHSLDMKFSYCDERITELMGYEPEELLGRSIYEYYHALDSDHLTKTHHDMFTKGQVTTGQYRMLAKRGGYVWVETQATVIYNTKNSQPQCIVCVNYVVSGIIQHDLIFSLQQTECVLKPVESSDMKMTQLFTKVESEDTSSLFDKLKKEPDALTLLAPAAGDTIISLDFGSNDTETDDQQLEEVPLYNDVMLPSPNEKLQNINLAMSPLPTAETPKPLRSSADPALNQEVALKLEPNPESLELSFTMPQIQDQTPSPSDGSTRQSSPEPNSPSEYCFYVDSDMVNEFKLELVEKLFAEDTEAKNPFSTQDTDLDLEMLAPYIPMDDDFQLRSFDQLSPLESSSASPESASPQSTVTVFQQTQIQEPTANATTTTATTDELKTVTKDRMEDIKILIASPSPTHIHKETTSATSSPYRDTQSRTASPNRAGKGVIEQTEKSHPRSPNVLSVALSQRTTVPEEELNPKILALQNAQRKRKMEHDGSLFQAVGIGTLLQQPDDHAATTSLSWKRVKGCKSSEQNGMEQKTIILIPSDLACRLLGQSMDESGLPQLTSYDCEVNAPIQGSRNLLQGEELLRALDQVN
# Description: <Experiment 2> In Vitro Studies for Inhibition of Hypoxia-Induced HIF-1α Accumulation
# Inhibition of HIF-1α accumulation by the compounds according to the present invention was determined in HCT116 human colon cancer cells. In particular, western blot analysis was used to identify the compounds, I-3, I-6, I-8, I-16, I-19, I-22˜I-24, and I-27˜I-36, which inhibited HIF-1α accumulation under hypoxia.
# as §4
# [6] = HCT-116, 72 h, day 3, 20 mg/kg oral once a day, read-out: TGI (tumor growth inhibition), tumor volume
# [7] = HCT-116, 120 h, day 5, 20 mg/kg oral once a day, read-out: TGI (tumor growth inhibition), tumor volume
# [8] = HCT-116, 168 h, day 7, 20 mg/kg oral once a day, read-out: TGI (tumor growth inhibition), tumor volume
# [9] = HCT-116, 240 h, day 10, 20 mg/kg oral once a day, read-out: TGI (tumor growth inhibition), tumor volume
# [10] = HCT-116, 288 h, day 12, 20 mg/kg oral once a day, read-out: TGI (tumor growth inhibition), tumor volume
# [11] = HCT-116, 336 h, day 14, 20 mg/kg oral once a day, read-out: TGI (tumor growth inhibition), tumor volume
# [12] = HCT-116, 336 h, day 14, 20 mg/kg oral once a day, read-out: TGI (tumor growth inhibition), tumor weight
# [13] = day 3, 20 mg/kg oral once a day
# [14] = day 5, 20 mg/kg oral once a day
# [15] = day 7, 20 mg/kg oral once a day
# [16] = day 10, 20 mg/kg oral once a day
# [17] = day 12, 20 mg/kg oral once a day
# [18] = day 14, 20 mg/kg oral once a day
# [19] = day 0, 20 mg/kg oral once a day
SMILES,"inhibition in vivo at 20 mg/kg [1, 6]","inhibition in vivo at 20 mg/kg [1, 7]","inhibition in vivo at 20 mg/kg [1, 8]","inhibition in vivo at 20 mg/kg [1, 9]","inhibition in vivo at 20 mg/kg [1, 10]","inhibition in vivo at 20 mg/kg [1, 11]","inhibition in vivo at 20 mg/kg [1, 12]","Tumor volume [1, 13]","Tumor volume [1, 14]","Tumor volume [1, 15]","Tumor volume [1, 16]","Tumor volume [1, 17]","Tumor volume [1, 18]","Tumor weight [1, 18]",inhibition at 10 µM [2],"Body weight change [3, 19]","Body weight change [3, 13]","Body weight change [3, 14]","Body weight change [3, 15]","Body weight change [3, 16]",further results
"CN1CCN(C(=O)C(C)(C)Oc2ccc(C34CC5CC(CC(C5)C3)C4)cc2)CC1 [Compound I-23, 2-(4-(Adamantan-1-yl)phenoxy)-2-methyl-1-(4-methylpiperazin-1-yl)propan-1-one]",13.5%,14.8%,12.7%,13.1%,13.1%,14.6%,14.5%,40.9 ± 8.2 mm^3,98.0 ± 13.9 mm^3,182.4 ± 19.9 mm^3,352.7 ± 53.6 mm^3,577.3 ± 74.1 mm^3,987.6 ± 143.7 mm^3,3659.9 ± 434.8 mg,76 to 100%,100.0 ± 0.0%,100.8 ± 1.1%,101.0 ± 1.6%,100.9 ± 0.7%,101.9 ± 1.1%,"Body weight change [3, 17]: 101.6 ± 1.3%; Body weight change [3, 18]: 102.0 ± 2.0%"
"Cc1cc(C23CC4CC(CC(C4)C2)C3)ccc1OCC(=O)N1CC[N+](C)(C)CC1.[I-] [Compound I-16, 4-(2-(4-(Adamantan-1-yl)-2-methylphenoxy)acetyl)-1,1-dimethylpiperazin-1-ium iodide]",28.6%,27.8%,27.9%,28.8%,28.6%,29.2%,30.2%,24.2 ± 6.1 mm^3,66.7 ± 14.2 mm^3,125.8 ± 13.6 mm^3,185.7 ± 20.2 mm^3,320.4 ± 33.9 mm^3,471.8 ± 26.0 mm^3,1655.7 ± 288.4 mg,51 to 75%,100.0 ± 0.0%,104.1 ± 1.6%,104.2 ± 2.8%,104.3 ± 1.9%,105.8 ± 4.2%,"GAPDH expression levels [4]: did not affect GAPDH expression levels; HIF-1α degradation [5]: promoted HIF-1α degradation; inhibitory effects on HIF-1α accumulation [5]: significant inhibitory effects on HIF-1α accumulation; Body weight change [3, 17]: 103.2 ± 3.6%; Body weight change [3, 18]: 102.3 ± 3.7%"
"CN1CCN(C(=O)CCOc2ccc(C34CC5CC(CC(C5)C3)C4)cc2)CC1 [Compound I-8, 3-(4-(Adamantan-1-yl)phenoxy)-1-(4-methylpiperazin-1-yl)propan-1-one]",27.6%,29%,30%,29.3%,28.7%,29.3%,31%,24.6 ± 5.1 mm^3,65.5 ± 9.0 mm^3,122.2 ± 7.9 mm^3,184.3 ± 10.0 mm^3,319.7 ± 22.0 mm^3,471.1 ± 29.0 mm^3,1634.6 ± 357.2 mg,51 to 75%,100.0 ± 0.0%,102.2 ± 2.8%,103.4 ± 2.8%,102.6 ± 2.2%,102.9 ± 1.5%,"GAPDH expression levels [4]: did not affect GAPDH expression levels; HIF-1α degradation [5]: promoted HIF-1α degradation; inhibitory effects on HIF-1α accumulation [5]: significant inhibitory effects on HIF-1α accumulation; Body weight change [3, 17]: 101.9 ± 1.0%; Body weight change [3, 18]: 101.7 ± 2.6%"
"CN(C)CCNC(=O)C(C)(C)Oc1ccc(C23CC4CC(CC(C4)C2)C3)cc1 [Compound I-24, 2-(4-(Adamantan-1-yl)phenoxy)-N-(2-(dimethylamino)ethyl)-2-methylpropanamide]",19.5%,18.4%,15.4%,15.8%,14.3%,14.4%,13.9%,38.1 ± 6.4 mm^3,93.8 ± 21.0 mm^3,176.8 ± 27.6 mm^3,341.7 ± 58.8 mm^3,569.1 ± 72.4 mm^3,990.1 ± 140.3 mm^3,3685.5 ± 357.5 mg,76 to 100%,100.0 ± 0.0%,103.5 ± 3.0%,104.0 ± 3.6%,103.6 ± 3.6%,105.0 ± 4.0%,"Body weight change [3, 17]: 104.9 ± 4.1%; Body weight change [3, 18]: 106.5 ± 4.5%"
